These results are taken from patent US20260159512A1, “BCAT2 INHIBITORS” (AGIOS PHARMACEUTICALS, INC., priority 2021, published 2026).

Conditions in all cases: average where tested multiple times
The target of assay [1] is T1, BCAT2 (Homo sapiens, UniProt O15382).
T1 sequence (O15382 28-392): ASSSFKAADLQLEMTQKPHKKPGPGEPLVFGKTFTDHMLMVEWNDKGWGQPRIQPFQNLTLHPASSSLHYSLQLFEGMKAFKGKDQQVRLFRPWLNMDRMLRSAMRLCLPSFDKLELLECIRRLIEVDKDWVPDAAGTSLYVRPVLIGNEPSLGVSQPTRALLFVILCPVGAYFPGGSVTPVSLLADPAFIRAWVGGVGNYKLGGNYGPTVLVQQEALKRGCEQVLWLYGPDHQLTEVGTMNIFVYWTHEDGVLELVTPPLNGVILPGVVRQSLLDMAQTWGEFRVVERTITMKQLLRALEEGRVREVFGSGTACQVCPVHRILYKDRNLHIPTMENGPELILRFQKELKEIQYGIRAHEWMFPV
The experiment in a line: BCAT2 in vitro enzyme inhibition assay (resazurin/diaphorase-coupled fluorescence). It counts as biochemical. In short, it runs like this:
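Coupled fluorescence readout: glutamate formed from L-leucine/α-ketoglutarate transamination drives GDH/NAD/diaphorase reduction of resazurin (Ex 540/Em 590). Human BCAT2 was first exposed 1 h at room temperature to compound, top final 100 μM in 3-fold, 10-point series; substrate reaction ran 1 h before SDS quench, in technical duplicate with DMSO max and enzyme-free min controls.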
For orientation: Resazurin is reduced to fluorescent resorufin, in cell work by metabolically active cells.

For a further assay, the target named is T2, hBCAT1 (Homo sapiens, UniProt P54687).
T2 sequence (P54687 1-386): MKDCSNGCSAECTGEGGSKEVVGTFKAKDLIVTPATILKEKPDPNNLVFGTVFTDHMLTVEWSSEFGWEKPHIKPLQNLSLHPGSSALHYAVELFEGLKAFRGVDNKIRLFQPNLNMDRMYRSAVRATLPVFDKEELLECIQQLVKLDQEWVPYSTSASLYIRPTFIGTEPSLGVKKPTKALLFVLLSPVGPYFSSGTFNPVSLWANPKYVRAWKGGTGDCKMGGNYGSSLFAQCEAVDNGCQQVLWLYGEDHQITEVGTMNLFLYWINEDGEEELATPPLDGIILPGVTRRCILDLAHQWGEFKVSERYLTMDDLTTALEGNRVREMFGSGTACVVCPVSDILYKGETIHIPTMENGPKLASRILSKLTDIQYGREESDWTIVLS
As to the kind of experiment: BCAT1 in vitro enzyme inhibition assay (resazurin/diaphorase-coupled fluorescence). Format: biochemical. In outline:
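Human BCAT1 activity read by resazurin/diaphorase-coupled fluorescence. Compounds added from 50× DMSO stocks at 1:50, giving 10-point 3-fold titrations from 100 μM top final concentration. Run in technical duplicate; repeat tests averaged.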

Assay [2] addresses T1, BCAT2. As to the kind of experiment: BCAT2 in vitro cell inhibition using engineered A549 cells (KMV cell assay, 13C6-KMV by LC-MS/MS). More on the design: The result was an engineered A549 cell line that expressed endogenous BCAT2; endogenous in cells; host or cells: A549 cells with MUT and BCAT1 knocked out by CRISPR/CAS9; key to BCAT2 Cell Inhibition: A: less than or equal to 0.100 μM; B: greater than 0.100 and less than or equal to 0.500 μM; C: greater than 0.500 and less than or equal to 1.000 μM; d: greater than 1.000 μM; E: no fit. Format: cell-based.

As to `O=C(N[C@H]1CCC[C@@H](n2c(-c3ccccc3F)nc3cnc(-c4nn[nH]n4)cc32)C1)c1ccc(Cl)s1` [Example 82, 5-chloro-N-((1S,3R)-3-(2-(2-fluorophenyl)-6-(2H-tetrazol-5-yl)-1H-imidazo[4,5-c]pyridin-1-yl)cyclohexyl)thiophene-2-carboxamide], the IC50 on BCAT2 [1] was not above 100 nM; on hBCAT1 it was less than 500 nM; on BCAT2 [2] it was 500 to 1000 nM.
For `O=C(N[C@H]1CCC[C@@H](n2c(-c3ccccc3F)nc3cnc(-c4nc[nH]n4)cc32)C1)c1ncc(Cl)s1` [Example 83, 5-chloro-N-((1S,3R)-3-(2-(2-fluorophenyl)-6-(1H-1,2,4-triazol-3-yl)-1H-imidazo[4,5-c]pyridin-1-yl)cyclohexyl)thiazole-2-carboxamide] the same measures were not above 100 nM, less than 500 nM and not above 100 nM.
For the molecule `CC(C)Cc1nc2cnc(-n3nccn3)cc2n1[C@@H]1CCC[C@H](NC(=O)c2ncc(Cl)s2)C1` [Example 84, 5-chloro-N-((1S,3R)-3-(2-isobutyl-6-(2H-1,2,3-triazol-2-yl)-1H-imidazo[4,5-c]pyridin-1-yl)cyclohexyl)thiazole-2-carboxamide], the figures for the IC50 at BCAT2 [1], at hBCAT1 and at BCAT2 [2] were not above 100 nM, less than 500 nM and not above 100 nM, respectively.
`O=C(N[C@H]1CCC[C@@H](n2c(-c3ccccc3F)nc3cnc(-c4nc[nH]n4)cc32)C1)c1ncc(C(F)(F)F)s1` [Example 85, N-((1S,3R)-3-(2-(2-fluorophenyl)-6-(1H-1,2,4-triazol-3-yl)-1H-imidazo[4,5-c]pyridin-1-yl)cyclohexyl)-5-(trifluoromethyl)thiazole-2-carboxamide]: the 50% inhibitory concentration (IC50) against BCAT2 [1] was not above 100 nM; against hBCAT1, less than 500 nM; against BCAT2 [2], not above 100 nM.
For `CC(C)Cc1nc2cnc(-c3nc[nH]n3)cc2n1[C@@H]1CCC[C@H](NC(=O)c2ncc(Cl)s2)C1` [Example 86, 5-chloro-N-((1S,3R)-3-(2-isobutyl-6-(1H-1,2,4-triazol-3-yl)-1H-imidazo[4,5-c]pyridin-1-yl)cyclohexyl)thiazole-2-carboxamide], the IC50 against BCAT2 [1] is not above 100 nM; at hBCAT1 it was less than 500 nM; against BCAT2 [2], not above 100 nM.
Consider `COCc1nc2cnc(-c3nc[nH]n3)cc2n1[C@@H]1CCC[C@H](NC(=O)c2ncc(Cl)s2)C1` [Example 91, 5-chloro-N-[(1S,3R)-3-[2-(methoxymethyl)-6-(1H-1,2,4-triazol-3-yl)imidazo[4,5-c]pyridin-1-yl]cyclohexyl]thiazole-2-carboxamide], for which the values for the IC50 against BCAT2 [1], on hBCAT1 and at BCAT2 [2] were 100 to 500 nM, 1000 to 5000 nM and more than 1000 nM, respectively.
As to `O=C(O)Cc1ccccc1-c1nc2cnc(-n3nccn3)cc2n1[C@@H]1CCC[C@H](NC(=O)c2ncc(C(F)F)s2)C1` [Example 96, 2-(2-(1-((1R,3S)-3-(5-(difluoromethyl)thiazole-2-carboxamido)cyclohexyl)-6-(2H-1,2,3-triazol-2-yl)-1H-imidazo[4,5-c]pyridin-2-yl)phenyl)acetic acid], the IC50 was in the range of 100 to 500 nM at BCAT2 [1] and 1000 to 5000 nM against hBCAT1. The “BCAT2 Cell Inhibition” value on BCAT2 [2] is on record as “E”.
On to `CC(Oc1nc2cnc(-n3nccn3)cc2n1[C@@H]1CCC[C@H](NC(=O)c2ncc(C(F)F)s2)C1)C(F)(F)F` (stereo partly drawn) [Example 98, N-((1S,3R)-3-(6-(2H-1,2,3-triazol-2-yl)-2-((1,1,1-trifluoropropan-2-yl)oxy)-1H-imidazo[4,5-c]pyridin-1-yl)cyclohexyl)-5-(difluoromethyl)thiazole-2-carboxamide], for which the IC50 is 100 to 500 nM on BCAT2 [1], more than 5000 nM at hBCAT1 and more than 1000 nM against BCAT2 [2].
In the case of `O=C(N[C@H]1CCC[C@@H](n2c(-c3ccccc3C(=O)O)nc3cnc(-n4nccn4)cc32)C1)c1ncc(C(F)F)s1` [Example 99, 2-(1-((1R,3S)-3-(5-(difluoromethyl)thiazole-2-carboxamido)cyclohexyl)-6-(2H-1,2,3-triazol-2-yl)-1H-imidazo[4,5-c]pyridin-2-yl)benzoic acid], the IC50 against BCAT2 [1] was not above 100 nM; on hBCAT1, 1000 to 5000 nM. At BCAT2 [2], the “BCAT2 Cell Inhibition” value is “E”.
Consider `O=C(N[C@H]1CCC[C@@H](n2c(OCC(F)(F)F)nc3cnc(-n4nccn4)cc32)C1)c1ncc(Cl)s1` [Example 101, N-((1S,3R)-3-(6-(2H-1,2,3-triazol-2-yl)-2-(2,2,2-trifluoroethoxy)-1H-imidazo[4,5-c]pyridin-1-yl)cyclohexyl)-5-chlorothiazole-2-carboxamide], for which the half-inhibitory concentration (IC50) is 100 to 500 nM at BCAT2 [1], more than 5000 nM against hBCAT1 and more than 1000 nM against BCAT2 [2].
With `O=C(N[C@H]1CCC[C@@H](n2c(-c3ccccc3F)nc3cnc(-c4ccccn4)cc32)C1)c1ncc(Cl)s1` [Example 104, 5-chloro-N-((1S,3R)-3-(2-(2-fluorophenyl)-6-(pyridin-2-yl)-1H-imidazo[4,5-c]pyridin-1-yl)cyclohexyl)thiazole-2-carboxamide], the IC50 against BCAT2 [1] is not above 100 nM; against hBCAT1 it was less than 500 nM; at BCAT2 [2], not above 100 nM.
For `Nc1cccc(-c2cc3c(cn2)nc(-c2ccccc2F)n3[C@@H]2CCC[C@H](NC(=O)c3ncc(Cl)s3)C2)n1` [Example 105, N-((1S,3R)-3-(6-(6-aminopyridin-2-yl)-2-(2-fluorophenyl)-1H-imidazo[4,5-c]pyridin-1-yl)cyclohexyl)-5-chlorothiazole-2-carboxamide], the values for the half-inhibitory concentration (IC50) against BCAT2 [1], at hBCAT1 and on BCAT2 [2] were not above 100 nM, less than 500 nM and not above 100 nM, respectively.
For the molecule `O=C(NC1CC(O)CC(n2c(-c3ccccc3F)nc3cnc(-n4nccn4)cc32)C1)c1ncc(C(F)F)s1` (stereo not drawn) [Example 106, 5-(difluoromethyl)-N-(3-(2-(2-fluorophenyl)-6-(2H-1,2,3-triazol-2-yl)-1H-imidazo[4,5-c]pyridin-1-yl)-5-hydroxycyclohexyl)thiazole-2-carboxamide], the values for the IC50 at BCAT2 [1], on hBCAT1 and at BCAT2 [2] were not above 100 nM, less than 500 nM and not above 100 nM, respectively.
Take `O=C(NC1CC(O)CC(n2c(-c3ccccc3F)nc3cnc(-n4nccn4)cc32)C1)c1ncc(Cl)s1` (stereo not drawn) [Example 109, 5-chloro-N-(3-(2-(2-fluorophenyl)-6-(2H-1,2,3-triazol-2-yl)-1H-imidazo[4,5-c]pyridin-1-yl)-5-hydroxycyclohexyl)thiazole-2-carboxamide]: the IC50 against BCAT2 [1] was not above 100 nM; on hBCAT1, less than 500 nM; at BCAT2 [2], not above 100 nM.
As to `O=C(NC1CCCC(n2c(-c3ccccc3F)nc3cnc(-n4nccn4)cc32)C1O)c1ncc(Cl)s1` (stereo not drawn) [Example 112, 5-chloro-N-(3-(2-(2-fluorophenyl)-6-(2H-1,2,3-triazol-2-yl)-1H-imidazo[4,5-c]pyridin-1-yl)-2-hydroxycyclohexyl)thiazole-2-carboxamide], the IC50 against BCAT2 [1] is not above 100 nM; against hBCAT1, less than 500 nM; against BCAT2 [2] it was not above 100 nM.
Turning to `O=C(NC1CC(O)CC(n2c(-c3ccccc3F)nc3cnc(-c4nnc[nH]4)cc32)C1)c1ncc(Cl)s1` (stereo not drawn) [Example 115, 5-chloro-N-(3-(2-(2-fluorophenyl)-6-(4H-1,2,4-triazol-3-yl)-1H-imidazo[4,5-c]pyridin-1-yl)-5-hydroxycyclohexyl)thiazole-2-carboxamide], the IC50 at BCAT2 [1] is not above 100 nM; against hBCAT1, less than 500 nM; on BCAT2 [2], not above 100 nM.
In the case of `C#Cc1ccc(C(=O)NC2CC(n3c(-c4ccccc4F)nc4cnc(-c5ncco5)cc43)CN(C)C2)s1` (stereo not drawn) [Example 116, 5-ethynyl-N-(5-(2-(2-fluorophenyl)-6-(oxazol-2-yl)-1H-imidazo[4,5-c]pyridin-1-yl)-1-methylpiperidin-3-yl)thiophene-2-carboxamide], the 50% inhibitory concentration (IC50) at BCAT2 [1] is not above 100 nM; against hBCAT1, less than 500 nM; against BCAT2 [2], not above 100 nM.

The IC50 is the concentration needed to halve the response being measured.
